Where two headings read alike, the source gives them in different places.
Columns and labels:
Assay in all cases: Herbicidal activity for paddy test
Type in all cases: in vivo
MOOVA = conditions: for pest or weed control at 2 g/ha: 0.002 kg/ha; for pest or weed control at 8 g/ha: 0.008 kg/ha; for pest or weed control at 31 g/ha: 0.031 kg/ha; for pest or weed control at 125 g/ha: 0.125 kg/ha; for pest or weed control at 500 g/ha: 0.500 kg/ha
Outline: (§1)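 Paddy test species were sown in furrows in sterilized sandy loam soil filled into pots with a 115 cm^2 surface area. Herbicidal activity was scored visually as percent control, from 0 (no effect) to 100 (complete kill).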

ECHOR = conditions: for pest or weed control at 2 g/ha: 0.002 kg/ha; for pest or weed control at 8 g/ha: 0.008 kg/ha; for pest or weed control at 31 g/ha: 0.031 kg/ha; for pest or weed control at 125 g/ha: 0.125 kg/ha; for pest or weed control at 500 g/ha: 0.500 kg/ha
Outline: as §1

SAGPY = conditions: for pest or weed control at 2 g/ha: 0.002 kg/ha; for pest or weed control at 8 g/ha: 0.008 kg/ha; for pest or weed control at 31 g/ha: 0.031 kg/ha; for pest or weed control at 125 g/ha: 0.125 kg/ha; for pest or weed control at 500 g/ha: 0.500 kg/ha
Outline: as §1

ORYSA = conditions: for plant injury at 2 g/ha: 0.002 kg/ha; for plant injury at 8 g/ha: 0.008 kg/ha; for plant injury at 31 g/ha: 0.031 kg/ha; for plant injury at 125 g/ha: 0.125 kg/ha; for plant injury at 500 g/ha: 0.500 kg/ha
Outline: as §1

SCPJU = conditions: for pest or weed control at 2 g/ha: 0.002 kg/ha; for pest or weed control at 8 g/ha: 0.008 kg/ha; for pest or weed control at 31 g/ha: 0.031 kg/ha; for pest or weed control at 125 g/ha: 0.125 kg/ha; for pest or weed control at 500 g/ha: 0.500 kg/ha
Outline: as §1

[1] = 3 Leaf, read-out: Herbicidal activity, ORYSA (3 Leaf)
[2] = seed, read-out: Herbicidal activity, ORYSA (seed)

SMILES	pest or weed control at 2 g/ha (MOOVA)	pest or weed control at 8 g/ha (MOOVA)	pest or weed control at 31 g/ha (MOOVA)	pest or weed control at 125 g/ha (MOOVA)	pest or weed control at 500 g/ha (MOOVA)	pest or weed control at 2 g/ha (ECHOR)	pest or weed control at 8 g/ha (ECHOR)	pest or weed control at 31 g/ha (ECHOR)	pest or weed control at 125 g/ha (ECHOR)	pest or weed control at 500 g/ha (ECHOR)	pest or weed control at 2 g/ha (SAGPY)	pest or weed control at 8 g/ha (SAGPY)	pest or weed control at 31 g/ha (SAGPY)	pest or weed control at 125 g/ha (SAGPY)	pest or weed control at 500 g/ha (SAGPY)	plant injury at 2 g/ha (ORYSA; [1])	plant injury at 8 g/ha (ORYSA; [1])	plant injury at 31 g/ha (ORYSA; [1])	plant injury at 125 g/ha (ORYSA; [1])	plant injury at 500 g/ha (ORYSA; [1])	also measured
CCCC(=NOC)C1=C(O)CC(c2c(C)c(C)c3c(c2Cl)CC(C)(C)C3)CC1=O (stereo not drawn) [Compound 42]	0%	0%	0%	0%	0%	0%	0%	80%	100%	100%	0%	0%	0%	0%	0%	0%	0%	0%	0%	0%	plant injury at 2 g/ha (ORYSA; [2]): 0%; plant injury at 8 g/ha (ORYSA; [2]): 0%; plant injury at 31 g/ha (ORYSA; [2]): 20%; plant injury at 125 g/ha (ORYSA; [2]): 100%; plant injury at 500 g/ha (ORYSA; [2]): 100%; pest or weed control at 2 g/ha (SCPJU): 0%; pest or weed control at 8 g/ha (SCPJU): 0%; pest or weed control at 31 g/ha (SCPJU): 0%; pest or weed control at 125 g/ha (SCPJU): 0%; pest or weed control at 500 g/ha (SCPJU): 0%
C=CCON=C(CCC)C1=C(O)CC(c2c(C)c(C)c3c(c2C)CC(C)(CC)C3)CC1=O (stereo not drawn) [Compound 18]	0%	0%	0%	0%	0%	0%	30%	70%	100%	100%	0%	0%	0%	0%	0%	0%	0%	0%	0%	0%	plant injury at 2 g/ha (ORYSA; [2]): 0%; plant injury at 8 g/ha (ORYSA; [2]): 0%; plant injury at 31 g/ha (ORYSA; [2]): 0%; plant injury at 125 g/ha (ORYSA; [2]): 30%; plant injury at 500 g/ha (ORYSA; [2]): 100%; pest or weed control at 2 g/ha (SCPJU): 0%; pest or weed control at 8 g/ha (SCPJU): 0%; pest or weed control at 31 g/ha (SCPJU): 0%; pest or weed control at 125 g/ha (SCPJU): 0%; pest or weed control at 500 g/ha (SCPJU): 0%
CCCC(=NOCC)C1=C(O)CC(c2c(C)c(C)c3c(c2C)CC(C)(C)C3)CC1=O (stereo not drawn) [Compound 7]	0%	0%	0%	0%	0%	95%	95%	100%	100%	100%	0%	0%	0%	0%	40%	0%	0%	0%	20%	65%	plant injury at 2 g/ha (ORYSA; [2]): 0%; plant injury at 8 g/ha (ORYSA; [2]): 20%; plant injury at 31 g/ha (ORYSA; [2]): 100%; plant injury at 125 g/ha (ORYSA; [2]): 100%; plant injury at 500 g/ha (ORYSA; [2]): 100%; pest or weed control at 2 g/ha (SCPJU): 0%; pest or weed control at 8 g/ha (SCPJU): 0%; pest or weed control at 31 g/ha (SCPJU): 0%; pest or weed control at 125 g/ha (SCPJU): 0%; pest or weed control at 500 g/ha (SCPJU): 0%
C=CCON=C(CC)C1=C(O)CC(c2c(C)c(C)c3c(c2Cl)CC(C)(C)C3)CC1=O (stereo not drawn) [Compound 40]	0%	0%	0%	0%	0%	0%	0%	0%	100%	100%	0%	0%	0%	0%	0%	0%	0%	0%	0%	0%	plant injury at 2 g/ha (ORYSA; [2]): 0%; plant injury at 8 g/ha (ORYSA; [2]): 0%; plant injury at 31 g/ha (ORYSA; [2]): 0%; plant injury at 125 g/ha (ORYSA; [2]): 0%; plant injury at 500 g/ha (ORYSA; [2]): 100%; pest or weed control at 2 g/ha (SCPJU): 0%; pest or weed control at 8 g/ha (SCPJU): 0%; pest or weed control at 31 g/ha (SCPJU): 0%; pest or weed control at 125 g/ha (SCPJU): 0%; pest or weed control at 500 g/ha (SCPJU): 0%
CCC(=NOC)C1=C(O)CC(c2c(C)c(C)c3c(c2Cl)CC(C)(C)C3)CC1=O (stereo not drawn) [Compound 38]	0%	0%	0%	0%	0%	0%	95%	100%	100%	100%	0%	0%	0%	0%	0%	0%	0%	0%	50%	100%	plant injury at 2 g/ha (ORYSA; [2]): 0%; plant injury at 8 g/ha (ORYSA; [2]): 20%; plant injury at 31 g/ha (ORYSA; [2]): 100%; plant injury at 125 g/ha (ORYSA; [2]): 100%; plant injury at 500 g/ha (ORYSA; [2]): 100%; pest or weed control at 2 g/ha (SCPJU): 0%; pest or weed control at 8 g/ha (SCPJU): 0%; pest or weed control at 31 g/ha (SCPJU): 0%; pest or weed control at 125 g/ha (SCPJU): 0%; pest or weed control at 500 g/ha (SCPJU): 0%
CCON=C(CC)C1=C(O)CC(c2c(C)c(C)c3c(c2C)CC(C)(CC)C3)CC1=O (stereo not drawn) [Compound 12]	0%	0%	0%	0%	50%	30%	70%	100%	100%	100%	0%	0%	0%	0%	30%	0%	0%	0%	0%	40%	plant injury at 2 g/ha (ORYSA; [2]): 0%; plant injury at 8 g/ha (ORYSA; [2]): 0%; plant injury at 31 g/ha (ORYSA; [2]): 30%; plant injury at 125 g/ha (ORYSA; [2]): 100%; plant injury at 500 g/ha (ORYSA; [2]): 100%; pest or weed control at 2 g/ha (SCPJU): 0%; pest or weed control at 8 g/ha (SCPJU): 0%; pest or weed control at 31 g/ha (SCPJU): 0%; pest or weed control at 125 g/ha (SCPJU): 0%; pest or weed control at 500 g/ha (SCPJU): 60%

Source: patent US6096930A, “Herbicidal cyclohexane-1,3-dione derivatives and their preparation process” (Korea Research Institute of Chemical Technology, priority 1994, dated 2000)
